From patent publication US5072032A, “Preparation and use of thiophosphonates and thio-analogues of phosphonoformic acid” (priority 1989, dated 1991) come the findings set out here.

Read-outs that look alike come from different tables or passages of the source.

What all share (format): biochemical
The target of one experiment is T1, EBV DNA polymerase (Epstein-Barr virus, UniProt P03198).
T1 construct: made in house
Briefly: Viral polymerase inhibition, EBV. From the text: (§1) Viral DNA polymerases (HSV-1, HSV-2, EBV) were purified by previously published methods (Derce, D. K. F. Bastow, and Y. C. Cheng (1982) J. Boil. Chem. 257:10251-10260; Ostrander, M., and Y. C. Cheng (1980) Biochim. Biophys. Acta 609:232-245; Tan, R. S., A. Datta. and Y. C. Cheng (1982) J. Virol. 44:893-899). These procedures generally included sequential chromatography on DEAE-cellulose. HIV reverse transcriptase was purified by antibody affinity column chromatography as descrbed (Starnes. M. C. and Y. C. Cheng (1989) J. Biol. Chem. 264:7073-7077). The purified enzymes were dialyzed against and stored in 50 mM Tris-HCl (pH 7.5) containing 1 mM each of DTT, EDTA and PMSF plus 30% glycerol. Mammalian DNA polymerases alpha, beta, gamma, and delta were partially purified from K562 celles (chronic myelogenous leukemia tissue culture line). Briefly, washed cell pellets were extracted and passed throgh DEAE-cellulose in the presence of 300 mM KPO4 (pH 7.5) as previously described (Starnes, M. C., and Y. C. Cheng (1987) J. Biol. Chem 282:988-981) to remove DNA. The column flow-through fractions were dialyzed against buffer which contained 50 mM Tris-HCl (pH 7.5), and fractionated on a single-stranded DNA-cellulose column with a 0-1M KCl gradient.
Standard assays were run at 37° C. and contained: 50 mM Tris, pH b 8.0, 0.5 mM DTT, 8 mM MgCl2, 100 μg/mL BSA, 150 μg/mL gapped calf thymus DNA, 100 μM each dATP, dCTP, dGTP, 10 .parallel.M [^3 H]-dTTP, and 1-5 .parallel.L enzyme in a final volume of 50 .parallel.L. Modified assays for pH dependence inhibition studies with PFA (1) and α--oxo phosphonates (4 and 5) contained 50 mM Hepes, pH 8.2-6.5, 8 mM MgCl2, 100 mM KCl, 100 μg/ml BSA, 0.5 A260 units/ml of poly(rA).(dT)10, 100 μM [^3 H]dTTP, and 1.5 .parallel.L enzyme in a final volume of 50 μL. Samples were processed as described above.

In a further experiment the target is T2, human DNA polymerase γ (Homo sapiens, UniProt P54098).
T2 construct: Mammalian DNA polymerases alpha, beta, gamma, and delta were partially purified from K562 celles; endogenous in cells; host or cells: K562 (chronic myelogenous leukemia tissue culture line)
T2 sequence (P54098 26-1239 limits assumed): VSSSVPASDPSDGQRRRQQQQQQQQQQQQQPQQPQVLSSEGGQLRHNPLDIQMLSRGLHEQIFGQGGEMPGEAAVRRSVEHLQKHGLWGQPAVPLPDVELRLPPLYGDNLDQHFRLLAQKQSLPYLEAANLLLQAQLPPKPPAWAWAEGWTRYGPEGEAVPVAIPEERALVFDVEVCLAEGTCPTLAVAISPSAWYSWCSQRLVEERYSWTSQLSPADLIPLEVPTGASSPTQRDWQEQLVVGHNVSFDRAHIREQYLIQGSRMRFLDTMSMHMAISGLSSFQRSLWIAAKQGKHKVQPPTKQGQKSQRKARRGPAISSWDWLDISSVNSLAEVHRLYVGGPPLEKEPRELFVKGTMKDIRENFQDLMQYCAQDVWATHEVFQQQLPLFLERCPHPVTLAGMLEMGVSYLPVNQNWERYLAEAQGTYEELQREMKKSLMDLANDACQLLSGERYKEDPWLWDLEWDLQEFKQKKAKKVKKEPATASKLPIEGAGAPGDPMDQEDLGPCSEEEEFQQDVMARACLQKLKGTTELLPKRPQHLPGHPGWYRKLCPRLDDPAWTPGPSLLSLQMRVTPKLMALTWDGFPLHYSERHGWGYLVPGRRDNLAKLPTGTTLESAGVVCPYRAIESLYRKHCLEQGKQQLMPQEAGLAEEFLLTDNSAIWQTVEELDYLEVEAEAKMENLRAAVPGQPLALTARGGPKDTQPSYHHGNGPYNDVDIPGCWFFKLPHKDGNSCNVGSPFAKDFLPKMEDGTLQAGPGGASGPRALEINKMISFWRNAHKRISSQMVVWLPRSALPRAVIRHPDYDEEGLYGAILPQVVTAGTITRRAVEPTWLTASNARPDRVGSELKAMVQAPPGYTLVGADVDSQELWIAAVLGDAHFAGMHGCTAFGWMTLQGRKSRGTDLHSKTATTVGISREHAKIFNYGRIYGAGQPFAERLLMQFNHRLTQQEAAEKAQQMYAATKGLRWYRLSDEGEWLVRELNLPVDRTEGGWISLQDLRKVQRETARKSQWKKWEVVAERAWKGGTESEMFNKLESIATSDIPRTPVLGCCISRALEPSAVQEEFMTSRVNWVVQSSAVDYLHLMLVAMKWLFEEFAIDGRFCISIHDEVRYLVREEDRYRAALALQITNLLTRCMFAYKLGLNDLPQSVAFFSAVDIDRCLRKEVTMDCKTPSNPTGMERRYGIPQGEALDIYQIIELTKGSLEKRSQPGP
T2 sequence (Q9UHN1 25-485 partner limits assumed): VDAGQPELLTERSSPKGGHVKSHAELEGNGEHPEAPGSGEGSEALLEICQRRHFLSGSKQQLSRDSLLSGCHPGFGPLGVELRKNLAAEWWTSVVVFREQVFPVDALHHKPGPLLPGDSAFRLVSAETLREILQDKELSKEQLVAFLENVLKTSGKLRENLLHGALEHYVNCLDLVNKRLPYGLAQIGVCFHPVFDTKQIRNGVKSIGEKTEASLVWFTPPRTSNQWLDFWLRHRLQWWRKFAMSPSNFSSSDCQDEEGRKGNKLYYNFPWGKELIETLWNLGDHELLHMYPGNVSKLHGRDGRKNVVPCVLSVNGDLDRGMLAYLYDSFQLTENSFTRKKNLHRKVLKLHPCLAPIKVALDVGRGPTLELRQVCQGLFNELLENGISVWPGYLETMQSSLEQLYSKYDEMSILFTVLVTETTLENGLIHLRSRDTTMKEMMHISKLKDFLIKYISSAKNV
Put plainly: Human DNA polymerase inhibition, gamma. The settings on record: for remaining activity at 100 µM: read-out: % Control at 100 μM ± S.D.
Description: as §1
(§2) In accordance with the teaching of the present invention similar enzyme inhibition assays were also conducted with respect to mammalian enzymes, more particularly, human DNA polymerase.

A further experiment concerns the target T3, human DNA polymerase α (Homo sapiens, UniProt P09884).
T3 construct: Mammalian DNA polymerases alpha, beta, gamma, and delta were partially purified from K562 celles; endogenous in cells; host or cells: K562 (chronic myelogenous leukemia tissue culture line)
Put plainly: Human DNA polymerase inhibition, alpha. The settings on record: for remaining activity at 100 µM: read-out: % Control at 100 μM ± S.D.
Description: as §1, §2

Experiment [1] addresses T4, HIV-1 reverse transcriptase (Human immunodeficiency virus type 1 group M subtype B, UniProt P04585).
T4 construct: made in house
Put plainly: HIV-1 reverse transcriptase assay (viral polymerase inhibition).

T1 sequence (P03198 whole entry): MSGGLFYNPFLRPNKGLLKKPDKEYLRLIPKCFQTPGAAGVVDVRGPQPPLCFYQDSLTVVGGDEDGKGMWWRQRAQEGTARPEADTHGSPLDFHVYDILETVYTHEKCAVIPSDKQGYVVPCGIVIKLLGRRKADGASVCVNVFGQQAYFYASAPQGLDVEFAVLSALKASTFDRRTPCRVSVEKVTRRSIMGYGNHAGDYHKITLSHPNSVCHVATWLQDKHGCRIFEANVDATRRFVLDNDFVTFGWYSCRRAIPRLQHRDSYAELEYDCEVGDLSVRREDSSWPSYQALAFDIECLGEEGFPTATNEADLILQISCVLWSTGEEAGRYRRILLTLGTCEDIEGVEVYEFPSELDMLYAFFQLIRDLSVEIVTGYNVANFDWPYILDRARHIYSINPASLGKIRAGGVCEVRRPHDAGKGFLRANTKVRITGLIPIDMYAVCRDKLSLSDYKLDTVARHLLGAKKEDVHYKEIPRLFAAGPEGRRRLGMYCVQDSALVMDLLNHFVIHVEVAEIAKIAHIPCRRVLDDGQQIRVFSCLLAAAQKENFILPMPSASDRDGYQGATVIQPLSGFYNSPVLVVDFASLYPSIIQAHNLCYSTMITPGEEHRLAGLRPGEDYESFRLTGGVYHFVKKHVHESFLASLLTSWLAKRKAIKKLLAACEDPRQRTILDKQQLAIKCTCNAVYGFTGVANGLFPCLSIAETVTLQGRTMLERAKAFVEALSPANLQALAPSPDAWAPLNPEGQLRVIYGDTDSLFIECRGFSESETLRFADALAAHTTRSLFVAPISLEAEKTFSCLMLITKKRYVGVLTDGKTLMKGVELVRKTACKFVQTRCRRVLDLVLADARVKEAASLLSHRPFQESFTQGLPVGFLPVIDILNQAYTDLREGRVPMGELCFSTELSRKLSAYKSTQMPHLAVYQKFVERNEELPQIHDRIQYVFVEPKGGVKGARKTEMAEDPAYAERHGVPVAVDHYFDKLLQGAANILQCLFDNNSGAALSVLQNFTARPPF
T3 sequence (P09884 whole entry): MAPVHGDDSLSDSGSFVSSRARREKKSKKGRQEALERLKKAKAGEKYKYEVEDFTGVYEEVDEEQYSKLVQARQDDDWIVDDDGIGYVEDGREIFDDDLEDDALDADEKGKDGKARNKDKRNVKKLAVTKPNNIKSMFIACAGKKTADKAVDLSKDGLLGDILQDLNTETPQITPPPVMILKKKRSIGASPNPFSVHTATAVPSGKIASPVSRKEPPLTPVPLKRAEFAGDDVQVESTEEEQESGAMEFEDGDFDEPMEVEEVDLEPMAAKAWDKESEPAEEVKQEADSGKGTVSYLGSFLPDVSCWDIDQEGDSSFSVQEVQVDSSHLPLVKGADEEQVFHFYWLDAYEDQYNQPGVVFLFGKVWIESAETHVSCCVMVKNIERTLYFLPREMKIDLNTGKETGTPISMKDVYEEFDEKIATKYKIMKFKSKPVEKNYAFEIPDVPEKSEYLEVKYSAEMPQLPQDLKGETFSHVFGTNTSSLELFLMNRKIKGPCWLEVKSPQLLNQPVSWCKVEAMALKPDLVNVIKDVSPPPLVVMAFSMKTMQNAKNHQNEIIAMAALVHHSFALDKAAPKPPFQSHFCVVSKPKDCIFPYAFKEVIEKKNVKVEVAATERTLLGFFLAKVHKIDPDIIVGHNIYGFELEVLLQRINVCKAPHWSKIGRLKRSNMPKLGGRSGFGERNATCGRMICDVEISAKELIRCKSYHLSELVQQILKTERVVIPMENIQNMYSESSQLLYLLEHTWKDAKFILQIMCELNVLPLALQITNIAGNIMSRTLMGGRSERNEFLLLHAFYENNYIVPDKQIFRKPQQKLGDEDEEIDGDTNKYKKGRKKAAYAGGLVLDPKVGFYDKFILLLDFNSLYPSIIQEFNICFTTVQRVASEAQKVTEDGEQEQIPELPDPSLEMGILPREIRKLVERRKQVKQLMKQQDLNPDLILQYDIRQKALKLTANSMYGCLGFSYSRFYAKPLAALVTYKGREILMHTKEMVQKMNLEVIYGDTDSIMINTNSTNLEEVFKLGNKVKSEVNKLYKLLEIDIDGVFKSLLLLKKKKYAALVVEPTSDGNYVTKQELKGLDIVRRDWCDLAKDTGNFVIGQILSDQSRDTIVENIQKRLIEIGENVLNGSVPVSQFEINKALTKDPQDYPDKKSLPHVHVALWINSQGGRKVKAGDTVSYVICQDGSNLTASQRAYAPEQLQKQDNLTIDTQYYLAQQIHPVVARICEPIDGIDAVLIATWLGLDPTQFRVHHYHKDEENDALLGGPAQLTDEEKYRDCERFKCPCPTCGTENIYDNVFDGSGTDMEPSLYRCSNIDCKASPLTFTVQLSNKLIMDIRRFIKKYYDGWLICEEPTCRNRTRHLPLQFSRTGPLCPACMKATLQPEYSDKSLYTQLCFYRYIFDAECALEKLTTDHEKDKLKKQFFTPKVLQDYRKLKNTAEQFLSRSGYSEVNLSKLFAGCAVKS
T3 sequence (Q14181 whole entry partner): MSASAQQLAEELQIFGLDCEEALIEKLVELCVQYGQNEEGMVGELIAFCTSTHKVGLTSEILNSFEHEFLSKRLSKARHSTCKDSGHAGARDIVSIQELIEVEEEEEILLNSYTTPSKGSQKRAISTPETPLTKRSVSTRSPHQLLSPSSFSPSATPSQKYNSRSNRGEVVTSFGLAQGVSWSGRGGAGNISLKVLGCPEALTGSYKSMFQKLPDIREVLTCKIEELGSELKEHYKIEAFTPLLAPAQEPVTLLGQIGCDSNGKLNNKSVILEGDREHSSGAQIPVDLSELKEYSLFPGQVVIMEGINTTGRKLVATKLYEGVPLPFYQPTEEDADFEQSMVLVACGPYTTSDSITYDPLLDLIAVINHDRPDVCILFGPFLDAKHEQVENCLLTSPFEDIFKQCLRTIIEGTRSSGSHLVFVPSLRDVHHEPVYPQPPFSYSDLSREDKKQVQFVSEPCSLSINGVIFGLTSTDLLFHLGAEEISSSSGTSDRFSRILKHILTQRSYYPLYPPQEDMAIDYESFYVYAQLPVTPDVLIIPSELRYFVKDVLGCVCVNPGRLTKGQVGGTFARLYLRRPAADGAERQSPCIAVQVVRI
T3 sequence (P49642 whole entry partner): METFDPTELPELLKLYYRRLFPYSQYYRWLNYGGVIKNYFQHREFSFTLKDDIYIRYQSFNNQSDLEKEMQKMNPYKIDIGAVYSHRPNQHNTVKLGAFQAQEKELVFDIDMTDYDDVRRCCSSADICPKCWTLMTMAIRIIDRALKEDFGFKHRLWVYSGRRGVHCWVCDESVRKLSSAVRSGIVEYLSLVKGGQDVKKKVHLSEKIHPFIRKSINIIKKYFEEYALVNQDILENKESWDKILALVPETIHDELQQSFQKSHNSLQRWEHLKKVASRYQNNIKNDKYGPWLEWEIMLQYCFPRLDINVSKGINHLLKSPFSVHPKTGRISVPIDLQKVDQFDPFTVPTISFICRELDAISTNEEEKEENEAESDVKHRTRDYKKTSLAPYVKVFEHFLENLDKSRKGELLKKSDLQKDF
T3 sequence (P49643 whole entry partner): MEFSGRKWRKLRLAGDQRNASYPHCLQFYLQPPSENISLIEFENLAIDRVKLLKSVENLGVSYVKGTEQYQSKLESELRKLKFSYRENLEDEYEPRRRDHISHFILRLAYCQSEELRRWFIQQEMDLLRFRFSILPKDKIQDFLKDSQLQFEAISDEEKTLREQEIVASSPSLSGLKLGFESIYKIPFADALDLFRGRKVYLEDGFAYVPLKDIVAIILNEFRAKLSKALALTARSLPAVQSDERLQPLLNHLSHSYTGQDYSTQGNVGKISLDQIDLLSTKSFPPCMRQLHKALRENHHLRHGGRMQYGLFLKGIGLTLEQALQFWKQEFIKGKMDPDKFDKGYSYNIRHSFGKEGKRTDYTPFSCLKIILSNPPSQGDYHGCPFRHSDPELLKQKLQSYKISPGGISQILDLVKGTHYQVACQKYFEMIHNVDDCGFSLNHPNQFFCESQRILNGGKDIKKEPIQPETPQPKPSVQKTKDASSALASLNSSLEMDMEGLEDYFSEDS

Consider `O=C(O)P(=O)(O)O` [PFA, phosphonoformic acid], for which the IC50 on EBV DNA polymerase (EBV, "activated" DNA, read-out: ID50 (the source's name)) was 1 µM; at human DNA polymerase γ (Pol γ, "activated" DNA, read-out: ID50 (the source's name)) it was above 100 µM; on human DNA polymerase α (Pol α, "activated" DNA, read-out: ID50 (the source's name)) it was 31 µM; in experiment [1], 0.7 µM. The remaining activity at 100 µM was determined as 55 ± 5% on human DNA polymerase γ (Pol γ, 100 μM, "activated" DNA) and 16 ± 2% on human DNA polymerase α (Pol α, 100 μM, "activated" DNA).

In the case of `O=C(O)P(O)(O)=S` [TPFA, thiophosphonoformic acid], the IC50 was 70 µM against EBV DNA polymerase, above 100 µM on human DNA polymerase γ, above 100 µM on human DNA polymerase α and 1 µM in experiment [1]. In addition, the “effectiveness of TPFA relative to PFA” value on EBV DNA polymerase (EBV enzyme, ratio of ID50 values of Table I) is given as “more than seventy times less effective”. The remaining activity at 100 µM at human DNA polymerase γ stood at 75 ± 3%; on human DNA polymerase α it was 72 ± 3%. In addition, at human DNA polymerase α (HIV enzyme and human enzyme, Tables I and II), the “toxicity to the human enzyme relative to PFA (therapeutic index)” value is on record as “at a minimum, three times less toxic”. Besides, at human DNA polymerase α (human DNA polymerase vs HIV enzyme of Table I), the “fold less active against the human enzyme than against the HIV enzyme (therapeutic index)” value was “greater than 100 fold”.
